Measured values published in US6486198B1, “Compounds and methods for the treatment of post traumatic stress disorder” (priority 1999, dated 2002).

Columns and labels:
[1] = tested on: DSM-IV PTSD criterion B symptoms of nightmares and intrusions (intrusive recollections/flashbacks); experiment: Naturalistic add-on/monotherapy topiramate trial in chronic PTSD patients; patient self-report of partial/full response of nightmares and intrusions (LOCF); type: in vivo, human
Text: Thirty five (35) patients meeting DSM-IV criteria for chronic post-traumatic stress disorder (PTSD) were selected for a study of the effects of topiramate administration. […] The group with hallucinatory PTSD experienced auditory and/or visual hallucinations containing content specifically associated with identified traumatic events. Whether these were PTSD “flashbacks” or psychotic experiences were at times difficult to ascertain due to fluctuations in reality testing the hallucinations. For this reason, prior to being screened for PTSD, some patients had received psychiatric diagnoses of psychotic disorders despite meeting full diagnostic criteria for PTSD.
Topiramate was added naturalistically to existing pharmacotherapy (see Table 1 for concomitant medications at start of trial), starting at 25 mglday and increasing whenever possible by 25 to 50 mg/day every 3 to 4 days to clinical response. Target symptoms were DSM-IV PTSD criterion B symptoms of nightmares (N =24) and intrusions (intrusive recollections/flashbacks, N=35) involving re-experiencing of traumas. Definitions of improvement, as assessed from patient self-report, included “partial response” as “definite reduction in intensity and frequency of nightmares or intrusions”, and “full response” as “complete cessation of nightmares and intrusions for a sustained period”. Following the seminal observations, in order to systematically identify responsive symptoms, the next 17 patients completed a self-report scale, the PTSD Checklist—Civilian Version (PCL-C)15, at baseline and at 4 weeks after starting topiramate. The patients were instructed to complete the PCL-C for experiences corresponding to traumas consistent with DSM-IV criterion A for PTSD. Paired ttest scores for the PCL-C were calculated with Jandel SigmaStat® v. 2.0.
Response assessment, summarized in Table 4, used the Last Observation Carried Forward (LOCF) method, which includes all patients who entered the trial and their last reported condition while under active treatment. Overall, topiramate suppressed nightmares in 79% of patients ([…]; 5/28 partially), and intrusions in 86% (22/35 fully; 8/35 partially). Globally (i.e., in terms of suppression of both nightmares and intrusions), 22 patients (63%) reported a full response and 8 patients (23%) a partial response. Five patients discontinued without response, 1 at 5 days, and the remaining 4 after 4 weeks. The non-hallucinatory subgroup achieved a higher response rate (full: 79%; full/partial: 89%). All full responses occurred in the non-hallucinatory subgroup. Benefit usually occurred within 2 to 3 days of reaching an effective dose. A full response to topiramate was reported for 10 patients within 1 week of treatment, and for 3 additional patients by the third week of treatment.

kindled epilepsy = conditions: in vivo; cited from earlier work
[2] = All Patients (N = 35), both nightmares and intrusions
[3] = All Patients (N = 35), both nightmares and intrusions, listed as topiramate
[4] = All Patients (N = 35), either nightmares or intrusions
[5] = All Patients (N = 35), either nightmares or intrusions, listed as topiramate
[6] = All Patients (N = 35), listed as topiramate
[7] = All Patients (N = 35), partial + full response
[8] = All Patients (N = 35), partial + full response, listed as topiramate
[9] = Non-Hallucinatory PTSD, Bipolar Disorder (N = 8)
[10] = Non-Hallucinatory PTSD, Bipolar Disorder (N = 8), listed as topiramate
[11] = Non-Hallucinatory PTSD, Non-Bipolar Disorder (N = 20)
[12] = Non-Hallucinatory PTSD, Non-Bipolar Disorder (N = 20), listed as topiramate
[13] = Patients with Hallucinatory PTSD (N = 7)
[14] = Patients with Hallucinatory PTSD (N = 7), listed as topiramate
[15] = Patients with Non-Hallucinatory PTSD, Total (N + 28)
[16] = Patients with Non-Hallucinatory PTSD, Total (N + 28), listed as topiramate

CC1(C)O[C@@H]2[C@@H](CO[C@@]3(COS(N)(=O)=O)OC(C)(C)O[C@@H]23)O1 [Topiramate, 2,3:4,5-bis-O-(1-methylethylidene)-β-D-fructopyranose sulfamate]
Share of partial responders with response at a dosage of 75 mg/day or less ([1]; 75 mg/day or less): 95%
Share of full responders with response at a dosage of 100 mg/day or less ([1]; 100 mg/day or less): 91%
Patients discontinued without response ([1]; 1 at 5 days, remaining 4 after 4 weeks): Five
Dosage of topiramate, Full response, mean ± SD ([1]; All Patients (N = 35)): 78.6 mg/day
Dosage of topiramate, Full response, median ([1]; All Patients (N = 35)): (50.0) mg/day
Dosage of topiramate, Partial response (threshold dosage), mean ± SD ([1]; All Patients (N = 35)): 41.7 mg/day
Dosage of topiramate, Partial response, median ([1]; All Patients (N = 35)): (25.0) mg/day
Suppression of intrusions, Full (number of patients) ([1]; All Patients (N = 35)): 22
Suppression of intrusions, Partial (number of patients) ([1]; All Patients (N = 35)): 8
Suppression of nightmares, Full (number of patients) ([1]; All Patients (N = 35)): 14
Suppression of nightmares, Partial (number of patients) ([1]; All Patients (N = 35)): 5
Time to onset of response, Full, mean ± SD [1, 2]: 35.3 days
Time to onset of response, Full, median [1, 2]: (8.0) days
Time to onset of response, Full, mean ± SD [1, 3]: 35 ± 48.6 days
Time to onset of response, Full, median [1, 3]: 8.0 days
Time to onset of response, Partial, mean ± SD [1, 4]: 10.9 days
Time to onset of response, Partial, median [1, 4]: (4.0) days
Time to onset of response, Partial, mean ± SD [1, 5]: 11 ± 13.1 days
Time to onset of response, Partial, median [1, 5]: 4.0 days
Dosage of topiramate, Full response, mean ± SD [1, 6]: 79 ± 113.8 mg/day
Dosage of topiramate, Full response, median [1, 6]: 50.0 mg/day
Dosage of topiramate, Partial response (threshold dosage), mean ± SD [1, 6]: 42 ± 31.7 mg/day
Dosage of topiramate, Partial response, median [1, 6]: 25.0 mg/day
Suppression of intrusions (N = 35) [1, 7]: 86%
Suppression of nightmares (N = 24) [1, 7]: 79%
Suppression of intrusions (N = 35) [1, 8]: 86%
Suppression of nightmares (N = 24) [1, 8]: 79%
Dosage of topiramate, Full response, mean ± SD [1, 9]: 154.2 mg/day
Dosage of topiramate, Full response, median [1, 9]: (37.5) mg/day
Dosage of topiramate, Partial response (threshold dosage), mean ± SD [1, 9]: 58.3 ± 14.4 mg/day
Dosage of topiramate, Partial response, median [1, 9]: (50.0) mg/day
Suppression of intrusions (N = 35) [1, 9]: 88% (7/8)
Suppression of intrusions, Full (number of patients) [1, 9]: 6
Suppression of intrusions, Partial (number of patients) [1, 9]: 1
Suppression of nightmares (N = 24) [1, 9]: 83% (5/6)
Suppression of nightmares, Full (number of patients) [1, 9]: 4
Suppression of nightmares, Partial (number of patients) [1, 9]: 1
Time to onset of response, Full, mean ± SD [1, 9]: 43.3 ± 62.5 days
Time to onset of response, Full, median [1, 9]: (6.0) days
Time to onset of response, Partial, mean ± SD [1, 9]: 17.3 ± 13.5 days
Time to onset of response, Partial, median [1, 9]: (17.0) days
Dosage of topiramate, Full response, mean ± SD [1, 10]: 154 ± 200.9 mg/day
Dosage of topiramate, Full response, median [1, 10]: 37.5 mg/day
Dosage of topiramate, Partial response (threshold dosage), mean ± SD [1, 10]: 58 ± 14.4 mg/day
Dosage of topiramate, Partial response, median [1, 10]: 50.0 mg/day
Dosage of topiramate, Full response, mean ± SD [1, 11]: 48.3 mg/day
Dosage of topiramate, Full response, median [1, 11]: (50.0) mg/day
Dosage of topiramate, Partial response (threshold dosage), mean ± SD [1, 11]: 26.9 mg/day
Dosage of topiramate, Partial response, median [1, 11]: (25.0) mg/day
Suppression of intrusions (N = 35) [1, 11]: 90%
Suppression of intrusions, Full (number of patients) [1, 11]: 16
Suppression of intrusions, Partial (number of patients) [1, 11]: 2
Suppression of nightmares (N = 24) [1, 11]: 85%
Suppression of nightmares, Full (number of patients) [1, 11]: 10
Suppression of nightmares, Partial (number of patients) [1, 11]: 1
Time to onset of response, Full, mean ± SD [1, 11]: 32.1 days
Time to onset of response, Full, median [1, 11]: (10.0) days
Time to onset of response, Partial, mean ± SD [1, 11]: 8.6 days
Time to onset of response, Partial, median [1, 11]: (3.5) days
Dosage of topiramate, Full response, mean ± SD [1, 12]: 48 ± 25.4 mg/day
Dosage of topiramate, Full response, median [1, 12]: 50.0 mg/day
Dosage of topiramate, Partial response (threshold dosage), mean ± SD [1, 12]: 30 ± 11.2 mg/day
Dosage of topiramate, Partial response, median [1, 12]: 25.0 mg/day
Dosage of topiramate, Partial response (threshold dosage), mean ± SD [1, 13]: 70.0 ± 51.2 mg/day
Dosage of topiramate, Partial response, median [1, 13]: (75.0) mg/day
Suppression of intrusions (N = 35) [1, 13]: 71% (5/7)
Suppression of intrusions, Full (number of patients) [1, 13]: 0
Suppression of intrusions, Partial (number of patients) [1, 13]: 5
Suppression of nightmares (N = 24) [1, 13]: 60% (3/5)
Suppression of nightmares, Full (number of patients) [1, 13]: 0
Suppression of nightmares, Partial (number of patients) [1, 13]: 3
Time to onset of response, Partial, mean ± SD [1, 13]: 12.6 ± 15.7 days
Time to onset of response, Partial, median [1, 13]: (7.0) days
Dosage of topiramate, Partial response (threshold dosage), mean ± SD [1, 14]: 70.0 ± 51.2 mg/day
Dosage of topiramate, Partial response, median [1, 14]: 75.0 mg/day
Time to onset of response, Partial, mean ± SD [1, 14]: 13 ± 15.7 days
Time to onset of response, Partial, median [1, 14]: 7.0 days
Dosage of topiramate, Full response, mean ± SD [1, 15]: 78.6 mg/day
Dosage of topiramate, Full response, median [1, 15]: (50.0) mg/day
Dosage of topiramate, Partial response (threshold dosage), mean ± SD [1, 15]: 32.8 mg/day
Dosage of topiramate, Partial response, median [1, 15]: (25.0) mg/day
Suppression of intrusions (N = 35) [1, 15]: 89%
Suppression of intrusions, Full (number of patients) [1, 15]: 22
Suppression of intrusions, Partial (number of patients) [1, 15]: 3
Suppression of nightmares (N = 24) [1, 15]: 84%
Suppression of nightmares, Full (number of patients) [1, 15]: 14
Suppression of nightmares, Partial (number of patients) [1, 15]: 2
Time to onset of response, Full, mean ± SD [1, 15]: 35.3 days
Time to onset of response, Full, median [1, 15]: (8.0) days
Time to onset of response, Partial, mean ± SD [1, 15]: 10.3 days
Time to onset of response, Partial, median [1, 15]: (4.0) days
Time to onset of response, Partial, mean ± SD [1, 16]: 10 ± 12.7 days
Time to onset of response, Partial, median [1, 16]: 4.0 days
Global full response rate (suppression of both nightmares and intrusions) ([1]; all 35 patients): 63%
Global full response, number of patients ([1]; all 35 patients): 22 patients
Global partial response rate ([1]; all 35 patients): 23%
Global partial response, number of patients ([1]; all 35 patients): 8 patients
Response rate, full/partial ([1]; all patients): 86%
Additional patients reporting a full response by the third week of treatment ([1]; by the third week): 3 patients
Response rate, full ([1]; hallucinatory group): 0%
Response rate, partial ([1]; hallucinatory group): 83%
Response rate, full ([1]; non-hallucinatory subgroup): 79%
Response rate, full/partial ([1]; non-hallucinatory subgroup): 89%
Patients reporting a full response within 1 week of treatment ([1]; within 1 week of treatment): 10 patients
Seizure block in animal model of kindled epilepsy (kindled epilepsy): effectively block seizures
